Like-named read-outs stand apart in the source and are kept apart here.

For test [1], the target named is TYK2 (Homo sapiens (Human), UniProt P29597). The test is described as follows: JAK Caliper Enzyme Assay at 1 mM ATP, TYK2. It counts as biochemical. An outline of the steps:
(§1)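 Human recombinant kinase domain + fluorescently labelled synthetic peptide, 1 mM ATP, RT; enzyme level/time set for 20–30% phosphorylation. EDTA stop. LabChip separation, peak-height % conversion, % effect vs plate controls.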

Test [2] has as its target JAK1 (Homo sapiens (Human), UniProt P23458). The test is described as follows: JAK Caliper Enzyme Assay at 1 mM ATP, JAK1. Type of test: biochemical. Summed up:
(§2)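 Recombinant human kinase domains phosphorylated a fluorescent synthetic peptide at room temperature, with enzyme level and time tuned to 20% to 30% conversion; EDTA stop buffer ended reactions. Mobility-shift separation gave percent product from peak heights, normalised to DMSO and positive controls, and IC50s came from concentration–effect curves.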

Test [3] deals with JAK2 (Homo sapiens (Human), UniProt O60674). The test can be described thus: JAK Caliper Enzyme Assay at 1 mM ATP, JAK2. Type of test: biochemical. An outline of the steps: as §1
JAK2, sequence (O60674 849-1124): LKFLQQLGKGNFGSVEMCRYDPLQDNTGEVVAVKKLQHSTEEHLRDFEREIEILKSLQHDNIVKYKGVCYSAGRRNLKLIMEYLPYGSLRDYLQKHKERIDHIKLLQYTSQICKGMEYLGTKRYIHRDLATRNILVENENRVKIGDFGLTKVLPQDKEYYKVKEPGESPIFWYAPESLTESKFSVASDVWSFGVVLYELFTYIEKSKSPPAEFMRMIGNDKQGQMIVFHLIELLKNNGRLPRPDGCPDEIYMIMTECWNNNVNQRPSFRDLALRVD
Test [4] addresses JAK3 (Homo sapiens (Human), UniProt P52333). The test can be described thus: JAK Caliper Enzyme Assay at 1 mM ATP, JAK3. Type of test: biochemical. An outline of the steps: as §2
Test [5] relates to IL-12 signaling (TYK2 and JAK2), STAT4 phosphorylation. The test is described as follows: Human Whole Blood IL-12 Induced STAT4 Phosphorylation Assay. Type of test: cell-based. The following applies: IL-12 5 ng/mL, pSTAT4 in lymphocytes by flow cytometry. The procedure: Selected compounds were assessed for their ability to inhibit IL-12 signaling in a human whole blood flow cytometry assay. IL-12 signals through TYK2 and JAK2.
Human Whole Blood IL-12 Induced STAT4 Phosphorylation Assay
Test articles were prepared as 30 mM stocks in DMSO. An 11-point 2.5 dilution series was created in DMSO with a top concentration of 10 mM. Further dilution was done by adding 4 μL of the above test article solutions into 96 μL of PBS with a top concentration of 400 μM. Human whole blood was collected from healthy donors via vein puncture into Vacutainer collection tubes containing sodium heparin (Catalog No. 366480; Becton Dickinson, Franklin Lakes, N.J.). Blood was warmed to 37° C. prior to use. Human whole blood was aliquoted ([…]) in 96-well, deep-well, V-bottom plates and treated with compounds at 11 different concentrations (0.2% DMSO final) at 37° C. for 60 minutes. This was followed by a challenge with IL-12 ([…]; final, 5 ng/mL) for 15 minutes. Samples were treated with warm 1× Lyse/Fix buffer ([…]) to terminate activation and further incubated at 37° C. for 20 minutes to lyse red blood cells. Plates were centrifuged at 300×g for 5 minutes, supernatant was aspirated, and cells were washed with […] of staining buffer (PBS containing 0.5% fetal bovine serum and 0.01% sodium azide). The washed cell pellets were resuspended with […] of pre-chilled 90% methanol, and incubated at 4° C. for 30 minutes. Plates were centrifuged at 300×g for 5 minutes, supernatant containing 90% methanol was aspirated, and cells were washed with […] of staining buffer. Cell pellets were resuspended in staining buffer containing anti-pSTAT4-AlexaFluor647 (1 to 150 dilution, […]), and incubated at room temperature in the dark overnight.
Samples were transferred to 96-well U-bottom plates and flow cytometric analysis was performed on a FACSCalibur or LSRFortessa equipped with a HTS plate loader (BD Biosciences). The lymphocyte population was gated for histogram analysis of pSTAT4. Background fluorescence was defined using unstimulated cells and a gate was placed at the foot of the peak to include ˜0.5% gated population. The histogram statistical analysis was performed using CellQuestÔ Pro version 5.2.1 (BD Biosciences) or FACSDiva version 6.2 (BD Biosciences) software. Relative fluorescence unit (RFU), which measures the level of phospho STAT4, was calculated by multiplying the percent positive population and its mean fluorescence. Data from 11 compound concentrations (singlicate at each concentration) was normalized as a percentage of control based on the formula: % of Control=100'(A−B)/(C−B) where A is the RFU from wells containing compound and IL-12, B is the RFU from wells without IL-12 and compound (minimum fluorescence) and C is the RFU from wells containing only IL-12 (maximum fluorescence). Inhibition curves and IC50 values were determined using the Prism version 5 software (GraphPad, La Jolla, Calif.).
(In flow cytometry, cells or beads pass a laser one at a time.)

TYK2, sequence (P29597 897-1176): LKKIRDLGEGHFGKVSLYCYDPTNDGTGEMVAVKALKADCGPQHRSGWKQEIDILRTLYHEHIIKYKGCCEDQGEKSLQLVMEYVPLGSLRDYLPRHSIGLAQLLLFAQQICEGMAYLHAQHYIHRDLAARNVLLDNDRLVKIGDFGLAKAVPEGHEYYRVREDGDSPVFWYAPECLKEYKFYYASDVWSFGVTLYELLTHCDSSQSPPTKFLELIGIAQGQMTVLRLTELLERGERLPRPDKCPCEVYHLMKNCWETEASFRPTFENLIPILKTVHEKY
JAK3, sequence (P52333 822-1111): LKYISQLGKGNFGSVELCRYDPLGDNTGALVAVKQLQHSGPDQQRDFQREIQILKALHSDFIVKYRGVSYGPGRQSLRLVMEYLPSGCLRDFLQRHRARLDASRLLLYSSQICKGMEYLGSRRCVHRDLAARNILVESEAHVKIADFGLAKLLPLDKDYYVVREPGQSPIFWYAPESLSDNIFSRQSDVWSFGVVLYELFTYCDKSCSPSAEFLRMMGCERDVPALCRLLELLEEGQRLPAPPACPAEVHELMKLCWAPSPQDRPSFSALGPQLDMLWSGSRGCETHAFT
JAK1, sequence (P23458 875-1153): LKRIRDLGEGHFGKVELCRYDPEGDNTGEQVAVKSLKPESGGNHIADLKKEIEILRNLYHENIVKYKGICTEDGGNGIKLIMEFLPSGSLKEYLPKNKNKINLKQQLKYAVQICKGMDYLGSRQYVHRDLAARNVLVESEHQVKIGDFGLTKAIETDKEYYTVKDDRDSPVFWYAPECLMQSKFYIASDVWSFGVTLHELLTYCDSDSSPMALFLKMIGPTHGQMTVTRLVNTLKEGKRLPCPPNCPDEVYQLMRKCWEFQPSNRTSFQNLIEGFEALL

A word on the IC50: it is the point on the concentration scale where inhibition reaches its midpoint. On to `N#CC[C@]1(n2ccc(-c3nc(-c4cc(N)[nH]n4)cc4ncccc34)n2)C[C@H](C#N)C1` [Example 41, trans-3-{3-[7-(5-amino-1H-pyrazol-3-yl)-1,6-naphthyridin-5-yl]-1H-pyrazol-1-yl}-3-(cyanomethyl)cyclobutanecarbonitrile], for which the IC50 in test [1] amounted to 8 nM; in test [2] it was 14 nM; in test [3], 21 nM; in test [4] it was 1240 nM; in test [5], 76 nM.

As for `N#CC[C@H]1C[C@@](CC#N)(n2ccc(-c3nc(-c4cn[nH]c4)cc4ncccc34)n2)C1` [Example 78, 2,2′-(cis-1-{3-[7-(1H-pyrazol-4-yl)-1,6-naphthyridin-5-yl]-1H-pyrazol-1-yl}cyclobutane-1,3-diyl)diacetonitrile], the 50% inhibitory concentration (IC50) in test [1] turned out to be 14 nM; in test [2], 172 nM; in test [3], 104 nM; in test [4], 8610 nM; in test [5], 76 nM.

`Cn1cc(-c2cc3ncccc3c(-c3ccn([C@]4(CC#N)C[C@H](C#N)C4)n3)n2)cn1` [Example 103, cis-3-(cyanomethyl)-3-{3-[7-(1-methyl-1H-pyrazol-4-yl)-1,6-naphthyridin-5-yl]-1H-pyrazol-1-yl}cyclobutanecarbonitrile]: the IC50 in test [1] amounted to 7 nM; in test [2], 55 nM; in test [3] it was 13 nM; in test [4] it was 873 nM; in test [5], 40 nM.

As to `N#CCN1CC(CC#N)(n2ccc(-c3nc(-c4cnn(C5COC5)c4)cc4ncccc34)n2)C1` [Example 120, 2,2′-[3-(3-{7-[1-(oxetan-3-yl)-1H-pyrazol-4-yl]-1,6-naphthyridin-5-yl}-1H-pyrazol-1-yl)azetidine-1,3-diyl]diacetonitrile], the IC50 worked out at 15 nM in test [1]; 521 nM in test [2]; 28 nM in test [3]; 8520 nM in test [4]; 44 nM in test [5] (Lymphocyte).

On to `N#CC[C@]1(n2ncc(-c3cc(-c4cn[nH]c4)cc4ncccc34)n2)C[C@H](C#N)C1` [Example 315, trans-3-(cyanomethyl)-3-{4-[7-(1H-pyrazol-4-yl)quinolin-5-yl]-2H-1,2,3-triazol-2-yl}cyclobutanecarbonitrile], for which the IC50 in test [1] is 19 nM; in test [2], 524 nM; in test [3], 215 nM; in test [4], > 10000 nM; in test [5], 123 nM.

For the compound `Cn1cc(-c2cc(-c3cnn([C@]4(CC#N)C[C@H](C#N)C4)c3)n3ccnc3c2)cn1` [Example 458, cis-3-(cyanomethyl)-3-{4-[7-(1-methyl-1H-pyrazol-4-yl)imidazo[1,2-a]pyridin-5-yl]-1H-pyrazol-1-yl}cyclobutanecarbonitrile], the IC50 in test [1] (JAK Caliper enzyme assay) is 25 nM; in test [2] (JAK Caliper enzyme assay) it was 1680 nM; in test [3] (JAK Caliper enzyme assay), 204 nM; in test [4] (JAK Caliper enzyme assay), > 10000 nM; in test [5], 177 nM.

The values above are taken from patent US11254668B2, “Pyrazolo[1,5-A]pyrazin-4-yl and related derivatives” (Pfizer Inc., priority 2017, dated 2022).
